Reference: patent US20140335019A1, “COMPOSITIONS AND METHODS FOR THE TREATMENT AND ANALYSIS OF NEUROLOGICAL DISORDERS” (THE REGENTS OF THE UNIVERSITY OF MICHIGAN, priority 2011, published 2014)
“Also recorded” adds a separate entry of the source.

How the values were obtained:
[1] = test system: human SK-N-BE(2)-M17 (M17) neuroblastoma cells; conditions: for concentration with no toxicity: human, 24 h
Procedure: (§2) Preliminary cytotoxicity studies of the compounds in human SK-N-BE(2)-M17 (M17) neuroblastoma cells were carried out using a standard colorimetric assay for measuring cell growth (i.e., MTT assay; MTT=3-(4,5-dimethylthiazol-2-yl)-2,5-diphenyltetrazolium bromide).

[2] = test system: Aβ species in human AD brain tissue homogenates; experiment: treatment of human AD brain tissue homogenates, Western blotting with 6E10; type: biochemical; conditions: 24 h treatment, frontal cortex homogenates
Text: The frontal cortex section of the human AD brain was selected because it generally contains high amounts of Aβ aggregates. […] Also, using these compounds, similar to in vitro disaggregation studies with synthetic Aβ peptide above, perturbing metal-Aβ interaction is contemplated to find use for disassembling Aβ aggregates in brain tissue.

Aβ aggregates = Aβ aggregates (Homo sapiens, UniProt P05067); experiment: ELISA of interaction with Aβ aggregates; type: binding; conditions: similar to ThT
Text: (§1) While an understanding of the mechanism is not necessary to practice the invention and the invention is not limited to any particular mechanism of action, these observations imply that the compounds may target metal ions associated with Aβ species.

M17 cells = experiment: cytotoxicity of metal (CuII or ZnII)-associated Aβ species with compounds, MTT assay; type: cell-based, human; conditions: Aβ 20 μM, metal ions 20 μM, compound 40 μM, 24 h
Procedure: Then, the cells were incubated for 24 h.
as §2

[3] = test system: Tg2576 hAPP-transgenic mice; experiment: in vivo activity in Tg2576 hAPP-transgenic mice (4G8 and Congo red staining of brain slices); conditions: 1 mg/kg oral gavage every two days for two months; relative to control vehicle; p<0.01
Procedure: During the development of embodiments of the technology provided herein, experiments were conducted to verify the efficacy of pharmaceutical compositions according to the technology by testing in a murine model. Pharmaceutical compositions comprising compounds described herein were administered every two days at 1 mg/kg (0.1 ml/10 g body weight) to four female Tg2576 hAPP-transgenic mice (18 months old) for two months (total 30 times in 60 days) by oral gavage.
Efficacy was evaluated after drug administration. Tissue slices […] long were prepared from cerebrums of Tg2576 mice by a procedure comprising rapid freezing and cutting using a cryostat. To verify the degree of amyloid beta accumulation, the brain tissue slices were stained by APP/Aβ17-24-immunospecific antibody 4G8. In addition, to identify the amount of mature amyloid plaques that were generated in the presence of Apolipoprotein E (ApoE), sample were stained with Congo red.

[4] = solution speciation by UV-vis variable-pH titrations; type: physicochemical; conditions: physiological pH (ca. 7.4)
[5] = molecular target: Aβ monomer pretreated with ZnCl2 (Homo sapiens, UniProt P05067); experiment: NMR studies of compound with Aβ monomer pretreated with ZnCl2; type: binding
Text: as §1

Aβ species = conditions: cited from earlier work
[6] = in vivo biodistribution of radiolabeled compound; parameters: species or system C57B1/6 mice
Procedure: Healthy female C57B1/6 mice (n=18) were administered by bolus intravenous injection with [^3H]-3b (2.5 μCi) each. The mice were divided into 3 groups of 6. Each group was sacrificed at 10 min, 60 min and 120 min post injection. Biodistribution was carried out by harvesting blood from cardiac puncture and tissue (liver, heart, kidneys, lungs, small intestine, muscle, spleen, feces, bladder, bone and brain). The brain was divided into four different sections (cerebellum, frontal cortex, parietal cortex and striatum). The tissue was digested and counted for accumulated activity.

Aβ monomer pretreated with ZnCl2, sequence (P05067 672-711 limits assumed): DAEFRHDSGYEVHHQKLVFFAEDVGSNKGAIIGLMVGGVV
Aβ aggregates, sequence (P05067 672-711 limits assumed): as above

Compound: CN(C)c1ccc(N=Cc2ccccn2)cc1 [2b, N^1,N^1-dimethyl-N^4-(pyridin-2-ylmethylene)benzene-1,4-diamine]
- cytotoxicity compared with CQ [1]: less cytotoxic than CQ
- concentration with no toxicity [1]: up to 100 μM

Compound: CN(C)c1ccc(NCc2ccccn2)cc1 [3b, N^1,N^1-Dimethyl-N^4-(pyridin-2-ylmethyl)benzene-1,4-diamine]
- Aβ species visualized by Western blotting with 6E10 [2]: more gel-permeable and lower MW Aβ species
- interaction with Aβ aggregates (ELISA) (Aβ aggregates): interacted with Aβ aggregates
- toxicity induced by metal-Aβ (M17 cells): capable of reducing metal-Aβ neurotoxicity; also recorded: noticeably diminished toxicity
- Aβ immunoreactivity (4G8 staining) [3]: reduced
- congophilicity (Congo red staining) [3]: reduced
- main species in solution [4]: neutral form
- complex formation with ZnII-pretreated Aβ monomer [5]: a ternary complex containing Aβ, ZnII, and the molecule may be generated
- concentration with no toxicity [1]: up to 40 μM

Compound: CN(C)c1ccc(-c2cn3cc(I)ccc3n2)cc1 [IMPY, 4-(6-iodoimidazo[1,2-α]pyridin-2-yl)-N,N-dimethylaniline]
- binding affinity to Aβ species (Aβ species): strong binding affinity

Compound: CN(C)c1ccc(NCc2ccccn2)cc1 [[^3H]-3b]
- BBB crossing ([6]; bolus intravenous injection, 2.5 μCi, 10, 60 and 120 min post injection): can cross the BBB
- brain uptake ([6]; cerebellum, frontal cortex, parietal cortex, striatum, 10, 60, 120 min): relatively consistent within the time points chosen

Compound: CN(C)c1ccc(/C=C/c2ccc(I)cc2)cc1 [p-1-stilbene, (E)-4-(4-iodostyryl)-N,N-dimethylaniline]
- binding affinity to Aβ species (Aβ species): strong binding affinity
